“Also recorded” adds a separate entry of the source. Like-named read-outs stand apart in the source and are kept apart here.
Columns and labels:
[1] = tested on: HMGB1 transfer between human and mouse nuclei; assay: Heterokaryon assay: HMGB1 transfer from human to mouse nuclei; type: cell-based; settings: for HMGB1 transfer between human and mouse nuclei in heterokaryons: 150 nM leptomycin B, 4 hours at 37° C. with cycloheximide
Source text: (A) Heterokaryons were formed by fusing HMGB1-expressing HeLa cells (human) and Hmgb1−/− mouse embryonic fibroblasts. Human cytokeratin and HMGB1 were stained red and green, respectively, with specific antibodies; nuclei were stained blue with DAPI (or Hoechst). Cells with human cytokeratin staining and two nuclei, one of which with bright DAPI-positive heterochromatic spots characteristic of mouse cells, were considered heterokaryons.
Heterokaryons were produced and scored as in panel A; 150 heterokaryons were evaluated for HMGB1 transfer into recipient mouse nuclei for each of the 2 classes (leptomycin and control). The 50% level is equivalent to complete equilibration.
HeLa cells were plated on glass coverslips in a 6-well dish (100 000 cells/dish). After 16 hours, 200 000 Hmgb1−/− mouse fibroblasts were plated on the same coverslips. Following a 3-hour incubation in the presence of 100 μg/ml cycloheximide, the cells were washed with PBS and treated with 100 μl of prewarmed 50% PEG-6000 in PBS for 1 min. After 3 washes with PBS, the cells were incubated with DMEM containing 100 μg/ml cycloheximide for 4 hours, and then fixed with 4% paraformaldehyde. Immunofluorescence was performed using anti-human cytokeratin (Santa Cruz) and anti-HMGB1 antibodies, and chromatin was visualized by DAPI staining. When indicated, 150 nM leptomycin B (a kind gift of Barbara Wolff, Novartis, Vienna) was added to the medium together with cycloheximide.

U937.12 cells [2] = assay: HMGB1 relocation from nucleus to vesicles in LPS-challenged U937.12 cells (immunofluorescence); type: cell-based
Description: Fibroblasts and HeLa cells were cultured in Dulbecco's modified Eagle's medium (DMEM) supplemented with 10% fetal bovine serum (FBS, from Gibco), 100 IU/ml of penicillin and 100 μg/ml streptomycin, in 5% CO2 humidified atmosphere. HeLa cells and 3134 mouse fibroblasts were transfected by calcium phosphate co-precipitation. To express fluorescent proteins, 3×10^5 cells were plated in 6 cm dishes and were transiently transfected with 8 μg of the appropriate plasmid. Cells were observed 36 hours after transfection. […] About 24 hours after transfection, 3134 fibroblasts were treated for 3 hours with 10 ng/ml trichostatin A (TSA, Sigma) before fixing and imaging. Subclone 12[−] of U937 promoyelocitic cells, kindly provided by M. Alfano and G. Poli (HSR, Milano), was grown in RPMI medium (Gibco) supplemented with 10% FCS, L-glutamine, 100 U/ml penicillin 100 μg/ml streptomycin, exposed for 3 days to 0.1 μM vitamin D3 (Roche) to promote CD14 expression, and stimulated with 100 ng/ml LPS (Sigma catalogue #L4391) or with 10 ng/ml TSA for 3 hours. For the experiments with kinase inhibitors, cells were exposed to 1 μM U0126, 10 μM SB203580 or 30 μM SP600125 (all from Calbiochem) at the same time as LPS, and lasting for 3 hours. Primary human monocytes, purified from peripheral blood (a kind gift from M. Iannacone, HSR), were maintained in RPMI medium supplemented as described above, and were activated with 100 ng/ml LPS.
Cell cultured in LabTek II chambers (Nalgene) were directly fixed in 3.7% paraformaldehyde (PFA) in PHEM buffer (36.8 g/l PIPES, 13 g/l HEPES, 7.6 g/l EGTA, 1.99 g/l MgSO4, buffered to pH 7.0 with KOH) for 10 minutes at room temperature. After fixation, cells were washed with PBS and incubated for 3 minutes at 4° C. with HEPES-based permeabilization buffer containing 300 mM sucrose and 0.2% Triton X-100. Fifteen minutes of incubation in blocking solution (BlS, 0.2% BSA in PBS) followed. Primary antibodies were then diluted in BIS to the suitable final concentration and incubation was prolonged for 1 hour at room temperature. After 3 rinses with BlS, cells were incubated with secondary antibodies in BIS for one hour, washed three times with BlS, and then incubated with PBS containing 0.5 μg/ml Hoechst 33342. The polyclonal rabbit anti-HMGB1 was purchased from BD PharMingen (Torrey Pines, Calif.), and used at 1:1600 dilution. Goat polyclonal antibodies against rabbit IgG (H+L) conjugated to Alexa Fluor 594 (working dilution 1:1000) were purchased from Molecular Probes (Eugene, Oreg., USA).
The secretion of TNF-α, IL-1, IL-8, and PGE2 by LPS-stimulated monocytes can be blocked by inhibiting ERK phosphorylation (Scherle et al., 1998). […] U937.12 cells were exposed to 200 ng/ml LPS in the presence of 1 μM U0126 (a specific inhibitor of ERK phosphorylation), 30 μM SP600125 (a specific inhibitor of Jnk kinases) or 10 μM SB203580 (a specific inhibitor of the p38 kinases). Control cultures were not exposed to LPS, or exposed to LPS but no inhibitors.

CRM1 exportin = CRM1 exportin (Homo sapiens, UniProt O14980); assay: Pull down assay with labeled CRM1; settings: 0.4 μM (400 nM) leptomycin B in the binding buffer
CRM1 exportin, sequence (O14980 whole entry): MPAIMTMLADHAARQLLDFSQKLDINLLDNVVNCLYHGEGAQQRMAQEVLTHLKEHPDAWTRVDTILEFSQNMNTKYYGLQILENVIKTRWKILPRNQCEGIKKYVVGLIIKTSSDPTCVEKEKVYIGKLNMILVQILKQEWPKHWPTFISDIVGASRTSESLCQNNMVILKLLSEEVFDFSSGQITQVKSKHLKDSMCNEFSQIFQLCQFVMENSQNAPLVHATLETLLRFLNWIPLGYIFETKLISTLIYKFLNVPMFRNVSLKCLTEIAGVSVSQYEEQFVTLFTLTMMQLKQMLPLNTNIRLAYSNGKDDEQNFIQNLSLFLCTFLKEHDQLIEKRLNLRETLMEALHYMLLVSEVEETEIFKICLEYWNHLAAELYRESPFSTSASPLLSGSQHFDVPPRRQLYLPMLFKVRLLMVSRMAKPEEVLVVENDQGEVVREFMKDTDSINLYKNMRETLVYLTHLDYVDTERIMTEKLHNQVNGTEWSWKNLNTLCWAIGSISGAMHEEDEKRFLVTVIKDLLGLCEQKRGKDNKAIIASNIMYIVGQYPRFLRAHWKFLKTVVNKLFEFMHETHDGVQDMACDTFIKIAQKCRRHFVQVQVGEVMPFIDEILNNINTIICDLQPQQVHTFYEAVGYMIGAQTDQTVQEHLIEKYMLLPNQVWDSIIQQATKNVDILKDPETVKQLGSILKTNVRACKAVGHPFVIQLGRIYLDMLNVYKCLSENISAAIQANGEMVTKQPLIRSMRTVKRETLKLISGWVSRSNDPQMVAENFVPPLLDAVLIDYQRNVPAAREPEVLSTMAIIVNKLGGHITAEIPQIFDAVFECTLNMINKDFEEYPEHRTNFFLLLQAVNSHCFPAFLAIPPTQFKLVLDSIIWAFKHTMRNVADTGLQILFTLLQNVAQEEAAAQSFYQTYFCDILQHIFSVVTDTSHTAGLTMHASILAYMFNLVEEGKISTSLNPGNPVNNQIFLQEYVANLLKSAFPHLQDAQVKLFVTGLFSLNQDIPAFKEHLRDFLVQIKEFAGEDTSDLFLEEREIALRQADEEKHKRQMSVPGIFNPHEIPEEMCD
Source text: Labeled CRM1 protein was mixed with beads bearing GST-NS2 immobilized onto Glutathione Sepharose or BSA, tailless HMGB1 (boxA+B) or individual boxes covalently linked to Sepharose. Aliquots representing the input material (In), the fourth wash (W4), the material remaining bound to beads after 5 washes (bound, B), and the unbound material (output, O) were electrophoresed and autoradiographed.
CRM1 protein was in vitro transcribed-translated with the TnT Coupled Reticulocyte Lysate System (Promega) following the manifacturer's protocol, using pSGCRM1 plasmid as template. Seven μl of freshly made [^35S]-Met labeled CRM1 were incubated in 15 μl RAN Buffer (50 mM Tris-HCl pH 7.5, 200 mM NaCl, 2 mM MgCl2, 10% glycerol), 5 μl of 6×CRM1 buffer (20 mM HEPES-KOH pH 7.5, 80 mM CH3COOK, 4 mM Mg (CH3COO)2, 250 mM sucrose, 2.5 mM DTT), 1 mg/ml BSA, 400 nM Leptomycin B where indicated, and approximately 10 μl of beads bearing immobilized GST-NS2, BSA, recombinant tailless HMGB1 (HMGB1ΔC, Muller et al., 2001b), boxA, or boxB. GST-NS2 was coupled to Gluthatione Sepharose (Amersham), the other proteins were covalently cross-linked to Activated Sepharose-CH (Amersham). The incubation was for one hour at 4° C. on a rotating wheel. The beads were pelleted by centrifugation, supernatants were dried in Savant. […]

U937.12 cells [3] = assay: HMGB1 relocation in U937.12 cells treated with TSA without LPS (immunofluorescence); type: cell-based; settings: 10 ng/ml TSA for 3 hours, no LPS
Description: (§1) Fibroblasts and HeLa cells were cultured in Dulbecco's modified Eagle's medium (DMEM) supplemented with 10% fetal bovine serum (FBS, from Gibco), 100 IU/ml of penicillin and 100 μg/ml streptomycin, in 5% CO2 humidified atmosphere. HeLa cells and 3134 mouse fibroblasts were transfected by calcium phosphate co-precipitation. To express fluorescent proteins, 3×10^5 cells were plated in 6 cm dishes and were transiently transfected with 8 μg of the appropriate plasmid. Cells were observed 36 hours after transfection. The average amount of HMGB1-GFP in the cell population was between 1 and 3% of HMGB1 (as measured by immunoblotting with anti-HMGB1 antibodies). About 24 hours after transfection, 3134 fibroblasts were treated for 3 hours with 10 ng/ml trichostatin A (TSA, Sigma) before fixing and imaging. Subclone 12[−] of U937 promoyelocitic cells, kindly provided by M. Alfano and G. Poli (HSR, Milano), was grown in RPMI medium (Gibco) supplemented with 10% FCS, L-glutamine, 100 U/ml penicillin 100 μg/ml streptomycin, exposed for 3 days to 0.1 μM vitamin D3 (Roche) to promote CD14 expression, and stimulated with 100 ng/ml LPS (Sigma catalogue #L4391) or with 10 ng/ml TSA for 3 hours. For the experiments with kinase inhibitors, cells were exposed to 1 μM U0126, 10 μM SB203580 or 30 μM SP600125 (all from Calbiochem) at the same time as LPS, and lasting for 3 hours. […]

3T3 cells = assay: HMGB1 acetylation pattern by 2D gel electrophoresis and anti-HMGB1 blot after deacetylase inhibitors; type: cell-based, mouse; settings: for hyperacetylation of HMGB1: cell lines with low complexity of HMGB1 acetylation (3T3 mouse fibroblasts, HeLa cells, HEK cells)
Description: (C) Most cell lines contain 2 isoforms of HMGB1, and the protein can be hyperacetylated with TSA treatment. 3T3 cells were incubated for 6 hours in DMEM, or DMEM supplemented with 10 ng/ml TSA, then collected and lysed.
About 50 μg of purified HMGB1 or about 250 μg of total cellular protein were added to 350 μl of rehydration buffer (RB), containing 8 M urea, 2% CHAPS, 20 mM dithioerythritol (DTE), 0.8% IPG buffer (carrier ampholytes, pH 3-10 non-linear or pH 4-7 linear). Samples were applied on 18 cm polyacrylamide gel strips (pH range: 3-10 NL, or pH 4-7 L). Isoelectrophocusing (IEF) was performed in IPGphor (Pharmacia Biotech). IEF was stopped at 75000-90000 VoltHours. Second dimension runs were performed using a Protean II apparatus (Bio-Rad). After IEF, strips were soaked first in equilibration buffer (EB: 6 M urea, 3% SDS, 375 mM Tris pH 8.6, 30% glycerol, 2% DTE), then in EB containing 3% iodoacetamide (LAA) and traces of bromophenol blue (BBP). Strips were then applied onto 10%-12% polyacrylamide gels. Gels were run at 90 V for about 16 hours, and were then either silver stained or transferred onto nitrocellulose membranes (ECL, Amersham) in 25 mM Tris pH 7.5, 0.192 M glycine, 20% methanol.

3134 mouse fibroblasts = assay: HMGB1-GFP relocation to the cytoplasm in fibroblasts after TSA; type: cell-based; settings: 10 ng/ml TSA for 3 hours
Description: as §1

human monocytes = assay: HMGB1 translocation to cytoplasmic vesicles in LPS-activated primary monocytes; type: cell-based; settings: cycloheximide; time scale about 16-20 hours
Description: as §1, with “The average amount of HMGB1-GFP in the cell population was between 1 and 3% of HMGB1 (as measured by immunoblotting with anti-HMGB1 antibodies).” left out

## CCC(=C/[C@H](C)C/C=C/C(C)=C/[C@@H](C)C(=O)[C@@H](C)[C@H](O)[C@@H](C)C/C(C)=C/C(=O)O)/C=C/[C@@H]1OC(=O)C=C[C@@H]1C [leptomycin B]
[1]; listed as Leptomycin B
  HMGB1 transfer between human and mouse nuclei in heterokaryons: substantially reduces, but does not abolish
[1]; listed as leptomycin
  HMGB1 transfer between human and mouse nuclei in heterokaryons: strongly reduced
[1]; vast majority of leptomycin-treated heterokaryons, after 4 hours, 50% level = complete equilibration
  HMGB1 migrated to the mouse nucleus: less than 5%
U937.12 cells [2]; 150 nM leptomycin together with LPS, 3 hours
  HMGB1 relocation to vesicles after LPS: partially blocked
U937.12 cells [2]; 150 nM leptomycin together with LPS, 3 hours, listed as leptomycin
  HMGB1 relocation to vesicles after LPS: blocks HMGB1 relocation almost completely
CRM1 exportin
  binding of labeled CRM1 to GST-NS2 and the HMG boxes (BoxA+B): did not bind
CRM1 exportin; listed as leptomicin B
  binding of labeled CRM1 to GST-NS2 and the HMG boxes (BoxA+B): prevents binding of CRM1

## CC(/C=C/C(=O)NO)=C\[C@@H](C)C(=O)c1ccc(N(C)C)cc1 [TSA, trichostatin A]
U937.12 cells [3]
  cytoplasmic expansion: do not show cytoplasmic expansion
  relocation of HMGB1 to cytoplasmic vesicles: a fraction of HMGB1 is relocalized to cytoplasmic vesicles; also recorded: a fraction of HMGB1 started to shift to cytoplasmic vesicles
3T3 cells; 3T3 cells, 10 ng/ml TSA, 6 hours, control 2 spots
  HMGB1 isoform spots on 2D gel (hyperacetylation): several HMGB1 spots appeared
3T3 cells
  hyperacetylation of HMGB1: hyperacetylation could be obtained
3134 mouse fibroblasts
  relocation of HMGB1-GFP to the cytoplasm: causes a significant relocation of HMGB1-GFP to the cytoplasm; also recorded: sufficient to relocate a significant amount of HMGB1 to the cytoplasm

## C[C@@H]1NC(=O)[C@H]2CCCN2C(=O)[C@H](CCCCCC(=O)[C@@H]2CO2)NC(=O)[C@@H](C)NC1=O [HC-toxin]
3T3 cells
  hyperacetylation of HMGB1: hyperacetylation could be obtained

## C[S+]([O-])c1ccc(-c2nc(-c3ccncc3)c(-c3ccc(F)cc3)[nH]2)cc1 (centres unmarked) [SB203580]
U937.12 cells [2]; 10 μM SB203580 together with LPS, 3 hours
  HMGB1 relocation to vesicles after LPS: has no effect; also recorded: substantial

## C[C@@H]1C[C@@H]([C@H](O)CC2CC(=O)NC(=O)C2)C(=O)[C@@H](C)C1 [cycloheximide]
Human monocytes
  HMGB1 translocation to cytoplasmic vesicles after LPS: not inhibited
U937.12 cells [2]; 10 μM cycloheximide starting 20 minutes prior to LPS addition
  HMGB1 translocation after LPS: does not block HMGB1 translocation
U937.12 cells [2]; 10 μg/ml cycloheximide
  HMGB1 translocation to vesicles when LPS is added: still translocate HMGB1 to vesicles

## CCCC(=O)[O-].[Na+] [sodium butyrate]
3T3 cells
  hyperacetylation of HMGB1: hyperacetylation could be obtained

## N#CC(=C(/N)Sc1ccccc1N)/C(C#N)=C(\N)Sc1ccccc1N [U0126]
U937.12 cells [2]
  HMGB1 relocation to vesicles after LPS: blocks it completely; also recorded: inhibition of HMGB1 translocation; also recorded: almost completely blocked
  HMGB1 translocation after LPS stimulation after removal of the inhibitor: restored

Source: patent US20060111287A1, “Acetylated protein” (priority 2002, published 2006)
